Data taken from ChEMBL document CHEMBL1201862, “PubChem BioAssay data set” (2004).
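Method: 48-hour compound exposure of cells in 96-well plates, five concentrations, linear interpolation of endpoints. Here, GI50 denotes the concentration required for 50% inhibition of growth.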 Activity calls are given as the source filed them. No stated cut-off is given here; in the data, active = GI50 up to about 1.1 µM and inactive = higher.

Columns and labels:
Test in all cases: growth of human tumour cells (NCI), 48 h
CAKI-1 = tested on: CAKI-1
HOP-62 = tested on: HOP-62
SNB-75 = tested on: SNB-75
HT-29 = tested on: HT-29
NCI/ADR-RES = tested on: NCI/ADR-RES
RXF 393 = tested on: RXF 393
COLO 205 = tested on: COLO 205
SK-MEL-2 = tested on: SK-MEL-2
SF-268 = tested on: SF-268
CCRF-CEM = tested on: CCRF-CEM
PC-3 = tested on: PC-3
SK-MEL-5 = tested on: SK-MEL-5
EKVX = tested on: EKVX
HCT-116 = tested on: HCT-116
M14 = tested on: M14
SF-295 = tested on: SF-295
NCI-H226 = tested on: NCI-H226
A498 = tested on: A498
786-0 = tested on: 786-0
SF-539 = tested on: SF-539

Measured: GI50

N#CI1OC(=O)c2ccccc21
inactive: CAKI-1 40.7 µM | HOP-62 > 100 µM | SNB-75 > 100 µM | HT-29 > 100 µM | NCI/ADR-RES > 100 µM | RXF 393 > 100 µM | COLO 205 > 100 µM | SK-MEL-2 > 100 µM | SF-268 > 100 µM | CCRF-CEM 2.83 µM | PC-3 > 100 µM | SK-MEL-5 > 100 µM | EKVX > 100 µM | HCT-116 > 100 µM | M14 > 100 µM | SF-295 > 100 µM | NCI-H226 > 100 µM | A498 > 100 µM | 786-0 > 100 µM | SF-539 > 100 µM

C=C1CN(Cc2ccccc2)[C@@H]2CCCCC[C@H](C#N)[C@H]12
inactive: CAKI-1 > 100 µM | HOP-62 > 69.2 µM | SNB-75 > 100 µM | HT-29 > 67.5 µM | NCI/ADR-RES > 77.4 µM | RXF 393 > 60.8 µM | COLO 205 > 100 µM | SK-MEL-2 > 100 µM | SF-268 > 100 µM | CCRF-CEM 24.9 µM | PC-3 > 74.1 µM | SK-MEL-5 > 100 µM | EKVX > 100 µM | HCT-116 > 72.4 µM | M14 > 100 µM | SF-295 > 21.2 µM | NCI-H226 > 69.3 µM | A498 > 100 µM | 786-0 > 100 µM | SF-539 > 100 µM

CC1=CC(C2/C(=N/O)C=C(C)CC2(C)C)C(O)C(C)(C)C1 (stereo not given)
inactive: CAKI-1 15 µM | HOP-62 14.9 µM | SNB-75 14.8 µM | HT-29 14.3 µM | NCI/ADR-RES 16.3 µM | RXF 393 15.3 µM | COLO 205 17.1 µM | SK-MEL-2 16 µM | SF-268 18 µM | CCRF-CEM 22.8 µM | PC-3 16.1 µM | SK-MEL-5 15.1 µM | EKVX 16.5 µM | HCT-116 15.7 µM | M14 15.1 µM | SF-295 18.6 µM | NCI-H226 15.8 µM | A498 18 µM | 786-0 17.4 µM | SF-539 24 µM

CC1=C2NCN(C)N=C2C(C#N)(C#N)C1(C#N)C#N
inactive: CAKI-1 5.97 µM | HOP-62 > 55.2 µM | SNB-75 > 51.1 µM | HT-29 21.4 µM | NCI/ADR-RES 28.6 µM | RXF 393 19.1 µM | COLO 205 5 µM | SK-MEL-2 > 61.7 µM | SF-268 32.2 µM | CCRF-CEM 2.22 µM | PC-3 26.9 µM | SK-MEL-5 27.4 µM | EKVX 26 µM | HCT-116 23.1 µM | M14 23.8 µM | SF-295 > 100 µM | NCI-H226 > 50.7 µM | A498 41.3 µM | 786-0 19.5 µM | SF-539 27 µM

CC(C)CCOC(=O)NC(Nc1ccc(F)cc1)(C(F)(F)F)C(F)(F)F
inactive: CAKI-1 19.5 µM | HOP-62 37.2 µM | SNB-75 > 100 µM | HT-29 39.8 µM | NCI/ADR-RES 52.6 µM | RXF 393 > 100 µM | COLO 205 18.3 µM | SK-MEL-2 53.1 µM | SF-268 34.1 µM | CCRF-CEM 19.5 µM | PC-3 28.1 µM | SK-MEL-5 12.6 µM | EKVX 60.7 µM | HCT-116 65.9 µM | M14 6.62 µM | SF-295 > 100 µM | NCI-H226 > 100 µM | A498 42.9 µM | 786-0 > 100 µM | SF-539 16.1 µM

c1ccc2c(c1)Sc1ccccc1N2CC1CN2CCC1CC2 (stereo not given) [MEQUITAZINE]
inactive: CAKI-1 8.26 µM | HOP-62 13.4 µM | SNB-75 1.75 µM | HT-29 3.01 µM | NCI/ADR-RES 11.1 µM | RXF 393 2.31 µM | COLO 205 1.69 µM | SK-MEL-2 3.32 µM | SF-268 7.36 µM | CCRF-CEM 3.28 µM | PC-3 5.35 µM | SK-MEL-5 3.2 µM | EKVX 11.4 µM | HCT-116 3.52 µM | M14 1.87 µM | SF-295 15.7 µM | NCI-H226 14.5 µM | A498 11.7 µM | 786-0 6.24 µM | SF-539 8.32 µM
